Assays:
Format in all cases: in vivo, human
[1] = FBG, HA1c and lipid profiles by independent pathology laboratory, Example 1 patient (Table 2); details: Nov. 5, 2006; prior to inulin
Text: (§1) Other similar devices can also be used.

[2] = Fasting blood glucose (FBG), Accu-Chek, T2DM patient on Glibenclamide with inulin (Examples 1 and 3)
Method: as §1
The efficacy of inulin on Glibenclamide therapy was investigated. Several years prior to inulin combination therapy, patient's FBG fluctuated drastically and was uncontrolled around 10 mmol/L. Their cholesterol and triglyceride were also very high (Table 2). FIG. 1 depicts the monthly FBG average at indicated time points. Conditions of treatments are described below: • January 2007: Patient's endocrinologist increased the Glibenclamide dose from 2×5 mg to 3×5 mg per day. […] For the first time they were diagnosed with Atrial fibrillation and prescribed with Warfarin. […] Low FBG assisted in excellent recovery. • March 2009: Inulin supply became unavailable.
The patient, as described above in Example 1, was switched over to inulin (Orafti), and combination therapy with Glibenclaminde (5 mg, three times daily) continued following a similar protocol as described above except that the patient received 15 gr/day of inulin (Orafti).

[3] = FBG, T2DM patient on Gliclazide with inulin (Example 2)
Method: as §1
Another patient, who was under Gliclazide therapy (30 mg, once daily) for nearly a decade with uncontrolled blood glucose levels above 9 mmol/L, also began the combination therapy with inulin (JLS). Various blood parameter measurements were as described in Example 1.

| Structure (SMILES) | Cholesterol [1] [mmol/L] | Fasting Glucose [1] [mmol/L] | Triglyceride [1] [mmol/L] | average FBG ([2]; February 2007, Glibenclamide 3×5 mg per day) [mmol/L] | average FBG ([2]; January 2007, Glibenclamide 2×5 mg per day) [mmol/L] | FBG ([2]; by October 2009, inulin unavailable from March 2009) [mmol/L] | FBG ([2]; several years prior to inulin combination therapy, uncontrolled) | blood glucose levels ([3]; Gliclazide 30 mg once daily for nearly a decade, uncontrolled) | FBG level ([3]; Gliclazide 30 mg once daily, before inulin, ± SEM) [mmol/L] |
| --- | --- | --- | --- | --- | --- | --- | --- | --- | --- |
| COc1ccc(Cl)cc1C(=O)NCCc1ccc(S(=O)(=O)NC(=O)NC2CCCCC2)cc1 [Glibenclamide] | 6.2 | 10 | 4 | 6 | 7.8 | ~7.5 | around 10 mmol/L |  |  |
| Cc1ccc(S(=O)(=O)NC(=O)NN2CC3CCCC3C2)cc1 (stereo not drawn) [Gliclazide] |  |  |  |  |  |  |  | above 9 mmol/L | 9.4 ± 1.82 |
